# Data reported in patent US3965109A, “Certain aryl amino pyridines” (priority 1971, dated 1976).
# How the values were obtained:
# [1] = test system: Piricularia oryzae (rice); format: in vivo; settings: 7 days
# [2] = test system: Pieris brassicae (cabbage white caterpillars); assay: Pest toxicity test; format: in vivo; settings: 0.1% by weight, 2 days
# [3] = test system: Plasmopara viticola (vine); assay: Fungicidal test against foliar disease C (foliage spray plus soil drench); format: in vivo; settings: 10 days; for Amount of disease grading, disease C (Table 4): 100 ppm spray and drench
# [4] = test system: Tetranychus telarius (red spider mites, eggs); assay: Pest toxicity test; format: in vivo; settings: 0.1% by weight; French bean; 3 days
# Uncinula necator (vine) = assay: Fungicidal test against foliar disease D (foliage spray plus soil drench); format: in vivo; settings: 10 days; for Amount of disease grading, disease D (Table 4): 100 ppm spray and drench
# [5] = test system: Puccinia recondita (wheat); assay: Fungicidal test against foliar disease A (foliage spray plus soil drench); format: in vivo; settings: 10 days
# [6] = test system: Aedes aegypti (mosquito larvae); assay: Pest toxicity test; format: in vivo; settings: 0.01% by weight; water; 1 day
# [7] = test system: Musca domestica (houseflies); assay: Pest toxicity test, contact test; format: in vivo; settings: 0.1% by weight; milk/sugar; 2 days; flies sprayed directly
# Aphis fabae = assay: Pest toxicity test; format: in vivo; settings: 0.1% by weight; broad bean; 2 days
# [8] = test system: Aedes aegypti (mosquito adults); assay: Pest toxicity test; format: in vivo; settings: 0.01% by weight; plywood; 1 day
# [9] = test system: Phytophthora infestans (tomato); format: in vivo; settings: 3 days; for Amount of disease grading, disease B (Table 4): 100 ppm spray and drench
# Megoura viceae = assay: Pest toxicity test; format: in vivo; settings: 0.1% by weight; broad bean; 2 days
# [10] = test system: Venturia inaequalis (apple); assay: Fungicidal test against foliar disease G (foliage spray plus soil drench); format: in vivo; settings: 50 ppm spray + 200 ppm soil drench; 21 days
# Experimental: This Example illustrates the fungicidal properties of compounds used as active ingredients in the compositions of the invention. The compounds were tested against a wide variety of foliar fungal diseases of plants. In the test, a composition comprising an aqueous solution or suspension of the test compound was sprayed on to the foliage or uninfected plants; the soil in which the plants were growing was also drenched with the composition. The compositions used for spraying and drencing contained 100 parts per million (ppm.) of the test compound except where otherwise stated in the table of results below. After spraying and drenching, the plants were then exposed to infection with the diseases it was desired to control, along with control plants not treated with the compound. After a period of days, depending upon the particular disease, the extent of the disease was visually assessed, as a percentage of the disease established upon the control plants which had not been treated with the compound under test, according to the grading scheme below
# In Table 2 below the names of the disease is given in the first column, and in the second column is given the time which elapsed between exposing the plants to infection and assessing the amount of disease.
# [11] = test system: Meloidogyne incognita (nematodes); assay: Pest toxicity test; format: in vivo; settings: 0.01% by weight; water; 1 day
# [12] = test system: Plutella maculipennis (diamond back moth larvae); assay: Pest toxicity test; format: in vivo; settings: in vivo
# [13] = test system: Phaedon cochleariae (mustard beetles); assay: Pest toxicity test; format: in vivo; settings: in vivo
# [14] = test system: Tetranychus telarius (red spider mites, adults); assay: Pest toxicity test; format: in vivo; settings: 0.1% by weight; French bean; 3 days
# [15] = test system: larvae of the blowfly (Lucilia serrata); assay: Insecticidal test on blowfly larvae on treated filter paper; format: in vivo; set-up: key: 5 represents inseccticidal activity equal to that of the known insecticide; 6 represents activity 10 times that of the standard; settings: scale of 1 to 6; filter paper with horse serum
# [16] = test system: Agriolimax reticulatus (slugs); assay: Molluscicidal activity test; format: in vivo, Agriolimax reticulatus (Mull); settings: pellet with 4% by weight; 6 days; 10°C
# Method in brief: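 Compound was applied to a calf feeding pellet at 4% by weight active ingredient after 24 h air drying. Two replicates, each of 2 slugs starved 24 h, were kept with a moist filter paper at 10°C, and kill was assessed after 6 days.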
# Wheat = assay: Herbicidal test, pre- and post-emergence; format: in vivo; settings: 10 kg/ha; scale 0 to 3 (complete kill)
# Tomato = assay: Herbicidal test, pre- and post-emergence; format: in vivo; settings: 10 kg/ha; scale 0 to 3 (complete kill)
# [17] = test system: Corynebacterium michiganense; assay: Antibacterial agar test (B2); format: cell-based; settings: 50 ppm; 5 days
# Method in brief: (§1)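 Compound was dissolved or suspended in acetone and mixed into nutrient agar to 50 ppm final, then dried overnight in Petri dishes. Plates were inoculated with the bacteria via multipoint inoculator and antibacterial activity was graded after 5 days.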
# Streptomyces scabies = assay: Antibacterial agar test (B7); format: cell-based; settings: 50 ppm; 5 days
# Erwinia carotovora = assay: Antibacterial agar test (B4); format: cell-based; settings: 50 ppm; 5 days
# Maize = assay: Herbicidal test, pre- and post-emergence; format: in vivo; settings: 10 kg/ha; scale 0 to 3 (complete kill)
# Xanthomonas malvacearum = assay: Antibacterial agar test (B3); format: cell-based; settings: 50 ppm; 5 days
# Method in brief: as §1
# Xanthomonas oryzae = format: cell-based; settings: 50 ppm; 5 days
# Pseudomonas syringae = assay: Antibacterial agar test (B6); format: cell-based; settings: 50 ppm; 5 days
# Lettuce = assay: Herbicidal test, pre- and post-emergence; format: in vivo; settings: 10 kg/ha; scale 0 to 3 (complete kill)
# [18] = test system: Agrobacterium tumifaciens; assay: Antibacterial agar test (B1); format: cell-based; settings: 50 ppm; 5 days
# [19] = 50 ppm spray + 200 ppm soil drench
SMILES,Mortality grading (kill) [2],Mortality grading (kill) [4],Mortality grading (kill) [6],"Mortality grading (kill), contact test [7]",Mortality grading (kill) (Aphis fabae),Mortality grading (kill) [8],Mortality grading (kill) (Megoura viceae),Mortality grading (kill) [11],Mortality grading (kill) [12],Mortality grading (kill) [13],Mortality grading (kill) [14],Activity relative to lindane [15],"Amount of disease grading, disease C (Table 4) [3]","Amount of disease grading, disease D (Table 4) (Uncinula necator (vine))","Amount of disease grading, disease B (Table 4) [9]",% Kill of slugs [16] [%],also measured
"Fc1nc(F)c(Cl)c(Nc2c(Cl)cccc2Cl)c1Cl [Compound 3, 3,5-Dichloro-2,6-difluoro-4(2,6-dichloroanilino)pyridine]",0 (O represents less than 30% kill),2 (2 represents 60 - 90% kill),0 (O represents less than 30% kill),0 (O represents less than 30% kill),0 (O represents less than 30% kill),0 (O represents less than 30% kill),0 (O represents less than 30% kill),2 (2 represents 60 - 90% kill),0 (key: O represents less than 30% kill; 1 represents 30 - 49% kill; 2 represents 60 - 90% kill; 3 represents over 90% kill; C indicates a chemosterilant effect.; A indicates an antifeeding effect.),0 (key: O represents less than 30% kill; 1 represents 30 - 49% kill; 2 represents 60 - 90% kill; 3 represents over 90% kill; C indicates a chemosterilant effect.; A indicates an antifeeding effect.),0 (O represents less than 30% kill),,,,,,"Amount of disease grading, disease E [1, 19]: 0 (61 to 100); Amount of disease grading, disease C [3, 19]: 2 (6 to 25); Amount of disease grading, disease D (Uncinula necator (vine); [19]): 3 (0 to 5); Amount of disease grading, disease A [5, 19]: 0 (61 to 100); Amount of disease grading, disease B [9, 19]: 0 (61 to 100); Amount of disease grading, disease G [10]: 0 (61 to 100)"
"O=[N+]([O-])c1cc([N+](=O)[O-])c2ccccc2c1Nc1c(Cl)c(F)nc(F)c1Cl [Compound 25, 3,5-Dichloro-2,6-difluoro-4(2,4-dinitro-1-naphthylamino) pyridine]",3 (3 represents over 90% kill),2 (2 represents 60 - 90% kill),3 (3 represents over 90% kill),0 (O represents less than 30% kill),0 (O represents less than 30% kill),0 (O represents less than 30% kill),0 (O represents less than 30% kill),3 (3 represents over 90% kill),0 (key: O represents less than 30% kill; 1 represents 30 - 49% kill; 2 represents 60 - 90% kill; 3 represents over 90% kill; C indicates a chemosterilant effect.; A indicates an antifeeding effect.),2 (key: O represents less than 30% kill; 1 represents 30 - 49% kill; 2 represents 60 - 90% kill; 3 represents over 90% kill; C indicates a chemosterilant effect.; A indicates an antifeeding effect.),0 (O represents less than 30% kill),5,3 (0 to 5),3 (0 to 5),3 (0 to 5),50,"Amount of disease grading, disease E (Table 4) ([1]; 100 ppm spray and drench): 0 (61 to 100); Amount of disease grading, disease A (Table 4) ([5]; 100 ppm spray and drench): 2 (6 to 25)"
"N#Cc1cc([N+](=O)[O-])c(Nc2c(Cl)c(F)nc(F)c2Cl)c([N+](=O)[O-])c1 [Compound 34, 4(4-Cyano-2,6-dinitroanilino)-3,5-dichloro-2,6-difluoropyridine]",0 (O represents less than 30% kill),3 (3 represents over 90% kill),3 (3 represents over 90% kill),,3 (3 represents over 90% kill),0 (O represents less than 30% kill),0 (O represents less than 30% kill),,2 (key: O represents less than 30% kill; 1 represents 30 - 49% kill; 2 represents 60 - 90% kill; 3 represents over 90% kill; C indicates a chemosterilant effect.; A indicates an antifeeding effect.),0 (key: O represents less than 30% kill; 1 represents 30 - 49% kill; 2 represents 60 - 90% kill; 3 represents over 90% kill; C indicates a chemosterilant effect.; A indicates an antifeeding effect.),3 (3 represents over 90% kill),5,3 (0 to 5),3 (0 to 5),3 (0 to 5),100,"Damage to plants, post-emergence (Wheat): 0; Damage to plants, pre-emergence (Wheat): 3; Damage to plants, post-emergence (Tomato): 0; Damage to plants, pre-emergence (Tomato): 2; Antibacterial activity grading B2 [17]: 3 (0 to 5); Antibacterial activity grading B7 (Streptomyces scabies): 3 (0 to 5); Antibacterial activity grading B4 (Erwinia carotovora): 0 (61 to 100); Damage to plants, post-emergence (Maize): 0; Damage to plants, pre-emergence (Maize): 3; Antibacterial activity grading B3 (Xanthomonas malvacearum): 2 (6 to 25); Antibacterial activity grading B5 (Xanthomonas oryzae): 2 (6 to 25); Antibacterial activity grading B6 (Pseudomonas syringae): 3 (0 to 5); Damage to plants, post-emergence (Lettuce): 0; Damage to plants, pre-emergence (Lettuce): 3; Antibacterial activity grading B1 [18]: 0 (61 to 100)"
